Measured values taken from patent US9730447B2, “Fungicidal amides” (E I DU PONT DE NEMOURS AND COMPANY, priority 2013, dated 2017).
Marks after values point to notes of the source that are not given here.

Columns and labels:
Format in all cases: in vivo
[1] = system: Septoria tritici; test: Test C: preventive spray on wheat seedlings, Septoria tritici (wheat leaf blotch), visual disease rating
From the text: (§1) General protocol for preparing test suspensions for Tests A-E: the test compounds were first dissolved in acetone in an amount equal to 3% of the final volume and then suspended at the desired concentration (in ppm) in acetone and purified water (50/50 mix by volume) containing 250 ppm of the surfactant Trem® 014 (polyhydric alcohol esters). The resulting test suspensions were then used in Tests A-E. Compounds were sprayed with either a 40 ppm or 10 ppm (*) test suspension to the point of run-off on the test plants which is the equivalent of a rate of 160 g ai/ha or 40 g ai/ha, respectively.
(§2) The test suspension was sprayed to the point of run-off on wheat seedlings. The following day the seedlings were inoculated with a spore suspension of Septoria tritici (the causal agent of wheat leaf blotch) and incubated in a saturated atmosphere at 24° C. for 48 h, and then moved to a growth chamber at 20° C. for 21 days, after which time visual disease ratings were made.
(§3) Results for Tests A-E are given in Table A. In the Table, a rating of 100 indicates 100% disease control and a rating of 0 indicates no disease control (relative to the controls). A dash (-) indicates no test results.

[2] = system: Puccinia recondite f. sp. tritici; test: Test D: preventive spray on wheat seedlings, Puccinia recondite f. sp. tritici (wheat leaf rust), visual disease rating
From the text: as §1
as §2, with “Puccinia recondite f. sp. tritici;” for “Septoria tritici”, “rust)” for “blotch)”, “20°” for “24°”, “24” for “48”, “6” for “21”
as §3

[3] = system: Erysiphe graminis f. sp. tritici; test: Test E: preventive spray on wheat seedlings, Erysiphe graminis f. sp. tritici (wheat powdery mildew), visual disease rating
From the text: as §1
The test suspension was sprayed to the point of run-off on wheat seedlings. The following day the seedlings were inoculated with a spore dust of Erysiphe graminis f. sp. tritici, (the causal agent of wheat powdery mildew) and incubated in a growth chamber at 20° C. for 8 days, after which time visual disease ratings were made.
as §3

[4] = system: Stagonospora nodorum (also known as Septoria nodorum); test: Test B: preventive spray on wheat seedlings, Stagonospora nodorum (wheat glume blotch), visual disease rating
From the text: as §1
The test suspension was sprayed to the point of run-off on wheat seedlings. The following day the seedlings were inoculated with a spore suspension of Stagonospora nodorum (also known as Septoria nodorum; the causal agent of wheat glume blotch) and incubated in a saturated atmosphere at 20° C. for 48 h, and then moved to a growth chamber at 20° C. for 6 days, after which time visual disease ratings were made.
as §3

[5] = values marked with asterisk (*), meaning not given
[6] = 100 = 100% disease control, 0 = no control, unmarked values

Row | Compound | Test C disease control rating [1, 5] | Test D disease control rating [2, 5] | Test E disease control rating [3, 5] | Test C disease control rating [1, 6] | Test B disease control rating [4, 6] | Test D disease control rating [2, 6] | Test E disease control rating [3, 6] | Test B disease control rating [4, 5]
1 | CSc1sccc1C(=O)Nc1ccccc1-c1cnc(-n2ccc(C(F)(F)F)n2)c(Cl)c1 [compound 142] | 88* % | 97* % | 0* % |  |  |  |  | 
2 | CC1=C(C(=O)Nc2ccccc2-c2cnc(-n3ccc(C(F)(F)F)n3)c(F)c2)S(=O)(=O)CCO1 [compound 114] |  |  |  | 84% | 0% | 100% | 64% | 
3 | Cc1cnn(-c2cnc(CCNC(=O)c3ncccc3C(F)(F)F)nc2)c1 [Compound 182] | 9* % | 0* % | 0* % |  | 0% |  |  | 
4 | O=C(Nc1ccccc1-c1ccc(-n2cccn2)nc1)c1ncccc1C(F)(F)F [compound 12] |  |  |  | 100% | 100% | 99% | 98% | 
5 | O=C(Nc1ccccc1-c1cnc(-n2ccc(C(F)(F)F)n2)c(Cl)c1)c1scnc1C(F)(F)F [compound 165] | 99* % | 98* % | 87* % |  | 0% |  |  | 
6 | Cn1cc(C(=O)Nc2ccccc2-c2cnc(-n3ccc(C(F)(F)F)n3)c(C#N)c2)c(C(F)F)n1 [compound 106] |  |  |  |  |  | 100% | 98% | 
7 | Cc1cc(C)c(C(=O)Nc2ccccc2-c2cnc(-n3ccc(C(F)(F)F)n3)c(Cl)c2)s1 [compound 116] | 99* % | 99* % | 64* % |  |  |  |  | 
8 | Cn1ncnc1C(=O)Nc1ccccc1-c1cnc(-n2ccc(C(F)(F)F)n2)c(Cl)c1 [compound 129] | 88* % | 17* % | 0* % |  |  |  |  | 
9 | Cc1oncc1C(=O)Nc1ccccc1-c1cnc(-n2ccc(C(F)(F)F)n2)c(Cl)c1 [compound 128] | 42* % | 67* % | 13* % |  |  |  |  | 
10 | Cn1cc(C(=O)Nc2ccccc2-c2cnc(-n3ccc(C(F)(F)F)n3)c(C#N)c2)c(C(F)(F)F)n1 [compound 127] | 62* % | 100* % | 40* % |  | 0% |  |  | 
11 | O=C(NCCc1ncc(-n2cc(Br)cn2)cn1)c1ncccc1C(F)(F)F [Compound 180] | 2* % | 0* % | 0* % |  | 0% |  |  | 
12 | Cn1cc(C(=O)Nc2ccccc2-c2cnc(-n3cnc(C(F)(F)F)c3)c(F)c2)c(C(F)F)n1 [compound 153] | 99* % | 99* % | 40* % |  |  |  |  | 
13 | O=C(Nc1ccccc1-c1cnc(-n2ccc(C(F)(F)F)n2)c(F)c1)c1nccnc1Cl [compound 149] |  |  |  | 97% | 95% | 99% | 98% | 
14 | CC1(C(=O)O)CC(c2ccc(-c3ccccc3NC(=O)c3ncccc3C(F)(F)F)cn2)=NO1 (racemic) [compound 146] |  |  |  | 1% | 0% | 0% | 0% | 
15 | O=C(Nc1ccccc1-c1cnc(-n2ccc(C(F)(F)F)n2)c(Cl)c1)c1cccs1 [compound 111] | 63* % | 84* % | 0* % |  |  |  |  | 
16 | Cc1ccsc1C(=O)Nc1ccccc1-c1cnc(-n2ccc(C(F)(F)F)n2)c(C#N)c1 [compound 154] | 94* % | 100* % | 0* % |  |  |  |  | 59* %
17 | COc1cccc(C2CC(c3ccc(-c4ccccc4NC(=O)c4cn(C)nc4C(F)F)cn3)=NO2)c1 (stereo not shown) [compound 102] |  |  |  | 97% | 99% | 100% | 73% | 
18 | Cc1occc1C(=O)Nc1ccccc1-c1cnc(-n2ccc(C(F)(F)F)n2)c(Cl)c1 [compound 118] | 42* % | 68* % | 0* % |  |  |  |  | 

Row | Compound | Test C disease control rating [1, 5] | Test D disease control rating [2, 5] | Test E disease control rating [3, 5] | Test C disease control rating [1, 6] | Test B disease control rating [4, 6] | Test D disease control rating [2, 6] | Test E disease control rating [3, 6] | Test B disease control rating [4, 5]
19 | Cc1sccc1C(=O)Nc1ccccc1-c1cnc(-n2ccc(C(F)(F)F)n2)c(F)c1 [compound 163] |  |  |  | 97% | 79% | 100% | 96% | 
20 | Cc1scnc1C(=O)Nc1ccccc1-c1cnc(-n2ccc(C(F)(F)F)n2)c(Cl)c1 [compound 170] | 74* % | 0* % | 0* % |  |  |  |  | 50* %
21 | Cn1cc(C(=O)Nc2ccccc2-c2ccc(-n3cccn3)nc2)c(C(F)F)n1 [compound 15] |  |  |  | 100% | 99% | 100% | 97% | 
22 | N#Cc1cc(-c2ccccc2NC(=O)c2ncccc2C(F)(F)F)cnc1-n1ccc(C(F)(F)F)n1 [compound 105] |  |  |  |  |  | 100% | 81% | 
23 | CCOC(=O)C1(C)CC(c2ccc(-c3ccccc3NC(=O)c3ncccc3C(F)(F)F)cn2)=NO1 (racemic) [compound 144] |  |  |  | 81% | 0% | 68% | 0% | 
24 | N#Cc1cc(-c2ccccc2NC(=O)c2nccnc2Cl)cnc1-n1ccc(C(F)(F)F)n1 [compound 108] |  |  |  |  |  | 96% | 87% | 
25 | O=C(NCCc1ncc(-n2ccc(C(F)(F)F)n2)cn1)c1ccccc1C(F)(F)F [Compound 177] |  |  |  | 91% |  | 0% | 79% | 
26 | O=C(Nc1ccccc1-c1cnc(-n2ccc(C(F)(F)F)n2)c(Cl)c1)c1occc1Br [compound 117] | 99* % | 99* % | 64* % |  |  |  |  | 
27 | CCOC(=O)C1CC(c2ccc(-c3ccccc3NC(=O)c3cn(C)nc3C(F)F)cn2)=NO1 (stereo not shown) [compound 110] |  |  |  | 22% |  | 68% | 0% | 
28 | N#Cc1cc(-c2ccccc2NC(=O)c2sccc2I)cnc1-n1ccc(C(F)(F)F)n1 [compound 143] | 100* % | 100* % | 64* % |  |  |  |  | 
29 | O=C(Nc1ccccc1-c1cnc(-n2ccc(C(F)(F)F)n2)c(Cl)c1)c1ccsc1 [compound 112] | 77* % | 0* % | 0* % |  |  |  |  | 
30 | Cc1sccc1C(=O)Nc1ccccc1-c1cnc(-n2ccc(C(F)(F)F)n2)c(Cl)c1 [compound 138] | 99* % | 100* % | 64* % |  |  |  |  | 
31 | O=C(Nc1ccccc1-c1cnc(-n2ccc(C(F)(F)F)n2)c(Cl)c1)c1ccsc1Cl [compound 120] | 98* % | 100* % | 0* % |  |  |  |  | 
32 | O=C(Nc1ccccc1-c1cnc(-n2ccc(C(F)(F)F)n2)c(Cl)c1)c1ccsc1Br [compound 139] | 98* % | 100* % | 40* % |  |  |  |  | 
33 | Cc1ncsc1C(=O)Nc1ccccc1-c1cnc(-n2ccc(C(F)(F)F)n2)c(Cl)c1 [compound 164] | 96* % | 91* % | 69* % |  |  |  |  | 
34 | Cc1nc(C(F)(F)F)c(C(=O)Nc2ccccc2-c2cnc(-n3ccc(C(F)(F)F)n3)c(C#N)c2)s1 [compound 107] |  |  |  |  |  | 99% | 43% | 
35 | CCOC(=O)C1(C)CC(c2ccc(-c3ccccc3NC(=O)c3cn(C)nc3C(F)F)cn2)=NO1 (stereo not shown) [compound 109] |  |  |  | 66% |  | 74% | 0% | 
36 | CSc1ccsc1C(=O)Nc1ccccc1-c1cnc(-n2ccc(C(F)(F)F)n2)c(Cl)c1 [compound 141] | 76* % | 97* % | 0* % |  |  |  |  | 
